US8007767B2, “Amino methyl imidazoles and related compounds as C5a receptor modulators” (Novartis International Pharmaceutical Ltd., priority 2002, dated 2011)

These compounds were tested against T1, human C5a receptor (Homo sapiens, UniProt P21730) (assay: standard assay of C5a receptor mediated calcium mobilization (Example 20)). Details: differentiated U937 cells, read-out: Ki < 1 μM.
T1 construct: endogenous in cells; host or cells: U937 cells differentiated with 1 mM dibutyryl cAMP
T1 sequence (P21730 1-350): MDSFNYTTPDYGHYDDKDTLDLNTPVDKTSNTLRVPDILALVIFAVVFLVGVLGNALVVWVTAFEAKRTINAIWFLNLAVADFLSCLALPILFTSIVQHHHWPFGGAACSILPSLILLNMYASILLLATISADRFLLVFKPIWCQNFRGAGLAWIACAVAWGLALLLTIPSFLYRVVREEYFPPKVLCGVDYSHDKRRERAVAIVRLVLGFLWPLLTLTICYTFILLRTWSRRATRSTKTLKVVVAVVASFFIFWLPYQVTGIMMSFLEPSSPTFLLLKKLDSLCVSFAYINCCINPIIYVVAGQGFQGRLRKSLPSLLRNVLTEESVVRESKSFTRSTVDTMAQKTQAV
Format: cell-based
Protocol: U937 cells are grown in differentiation media (1 mM dibutyrl cAMP in RPMI 1640 medium containing 10% fetal bovine serum) for 48 hours at 37° C. then reseeded onto 96-well plates suitable for use in a FLIPR™ Plate Reader (Molecular Devices Corp., Sunnyvale Calif.). Cells are grown an additional 24 hours (to 70-90% confluence) before the assay. The cells are then washed once with Krebs Ringer solution. FLUO-3 calcium sensitive dye (Molecular Probes, Inc. Eugene, Oreg.) is added to 10 μg/mL and incubated with the cells at room temperature for 1 to 2 hours. The 96 well plates are then washed to remove excess dye.
C. Assays for the Identification of Receptor Modulatory Agents: Antagonists and Agonists
Those of skill in the art will recognize that the calcium mobilization assay described above may be readily adapted for identifying test compounds as having agonist or antagonist activity, at the human C5a receptor.
For example, in order to identify antagonist compounds, differentiated U937 cells are washed and incubated with Fluo-3 dye as described above. One hour prior to measuring the fluorescence signal, a subset of the cells is incubated with a 1 uM concentration of at least one compound to be tested. The fluorescence response upon the subsequent addition of 0.3 nM (final concentration) human recombinant C5a is monitored using the FLIPR™ plate reader. Antagonist compounds elicit at least a 2-fold decrease in the fluorescence response relative to that measured in the presence of human C5a alone. Preferred antagonist compounds elicit at least a 5-fold, preferably at least a 10-fold, and more preferably at least a 20-fold decrease in the fluorescence response relative to that measured in the presence of human C5a alone.

Ki [µM] | Structure (SMILES)
< 1 | CCCCn1c(CN(Cc2ccccc2)Cc2ccc3c(c2)OCO3)cnc1C1CCCCC1 [Compound 9, Benzo[1,3]dioxol-5-ylmethyl-benzyl(1-butyl-2-cyclohexyl-3H-imidazol-5-ylmethyl)-amine]
< 1 | CCCCn1c(C2=CCCCC2)nc(-c2ccccc2)c1CN(Cc1ccc2c(c1)OCO2)Cc1ccc2c(c1)OCO2 [Compound 12, 1-(1,3-benzodioxol-5-yl)-N-(1,3-benzodioxol-5-ylmethyl)-N-[(1-butyl-2-cyclohex-1-en-1-yl-4-phenyl-1H-imidazol-5-yl)methyl]methanamine]
< 1 | CCCCN(Cc1ccc2[nH]ccc2c1)Cc1c(Cl)nc(N2CCOCC2)n1CCCC [Compound 16, N-[(1-butyl-4-chloro-2-morpholin-4-yl-1H-imidazol-5-yl)methyl]-N-(1H-indol-5-ylmethyl)butan-1-amine]
< 1 | CCCCN(Cc1ccc2c(c1)OCCO2)Cc1c(Cl)nc(N2CCOCC2)n1CCCC [Compound 17, N-[(1-butyl-4-chloro-2-morpholin-4-yl-1H-imidazol-5-yl)methyl]-N-(2,3-dihydro-1,4-benzodioxin-6-ylmethyl)butan-1-amine]
< 1 | CCCCn1c(N2CCOCC2)nc(Cl)c1CN(CCC(C)C)Cc1ccc2c(c1)OCCO2 [Compound 18, N-[(1-butyl-4-chloro-2-morpholin-4-yl-1H-imidazol-5-yl)methyl]-N-(2,3-dihydro-1,4-benzodioxin-6-ylmethyl)-3-methylbutan-1-amine]

Continued, compound first:

Structure (SMILES) | Ki [µM]
CCCCn1c(CN(Cc2ccccc2)Cc2ccc3c(c2)OCCO3)cnc1C1CCCCC1 [Compound 10, Benzyl-(1-butyl-2-cyclohexyl-3H-imidazol-5-ylmethyl)-(2,3-dihydro-benzo[1,4]dioxin-6-ylmethyl)-amine] | < 1
CCCCn1c(C2CC2)nc(-c2ccccc2)c1CN(Cc1ccc2c(c1)OCO2)Cc1ccc2c(c1)OCO2 [Compound 11, 1-(1,3-benzodioxol-5-yl)-N-(1,3-benzodioxol-5-ylmethyl)-N-[(1-butyl-2-cycloproyl-4-phenyl-1H-imidazol-5yl)methyl]methanamine] | < 1
CCCCn1c(C2CC=CCC2)nc(-c2ccccc2)c1CN(Cc1ccc2c(c1)OCO2)Cc1ccc2c(c1)OCO2 (centres unmarked) [Compound 13, 1-(1,3-benzodioxol-5-yl)-N-(1,3-benzodioxol-5-ylmethyl)-N-[(1-butyl-2-cyclohex-3-enyl-4-phenyl-1H-imidazol-5-yl)methyl]methanamine] | < 1
CCCCn1c(N2CCOCC2)nc(Cl)c1CN(Cc1ccc(C(=O)OC)cc1)Cc1ccc2c(c1)OCCO2 [Compound 14, methyl 4-{[[(1-butyl-4-chloro-2-morpholin-4-yl-1H-imidazol-5-yl)methyl](2,3-dihydro-1,4-benzodioxin-6-ylmethyl)amino]methyl}benzoate] | < 1
CCCCn1c(N2CCOCC2)nc(Cl)c1CN(Cc1ccc(C(=O)O)cc1)Cc1ccc2c(c1)OCCO2 [Compound 15, 4-{[[(1-butyl-4-chloro-2-morpholin-4-yl-1H-imidazol-5-yl)methyl](2,3-dihydro-1,4-benzodioxin-6-ylmethyl)amino]methyl}benzoic acid] | < 1
CCCCN(Cc1c(Cl)nc(N2CCOCC2)n1CCCC)C(C)c1ccc2c(c1)OCCO2 (centres unmarked) [Compound 19, N-[(1-butyl-4-chloro-2-morpholin-4-yl-1H-imidazol-5-yl)methyl]-N-[1-(2,3-dihydro-1,4-benzodioxin-6-yl)ethyl]butan-1-amine] | < 1
CCCCn1c(N2CCOCC2)nc(Cl)c1CN(CCC(C)C)C(C)c1ccc2c(c1)OCCO2 (centres unmarked) [Compound 20, N-{(1-butyl-4-chloro-2-morpholin-4-yl-1H-imidazol-5-yl)methyl]-N-[1-(2,3-dihydro-1,4-benzodioxin-6-yl)ethyl]-3-methylbutan-1-amine] | < 1
CCCCn1c(N2CCCCC2)nc(Cl)c1CN(Cc1cccc(OCC)c1)Cc1ccc2c(c1)OCCO2 [Compound 21, 1-(1-butyl-4-chloro-2-piperidin-1-yl-1H-imidazol-5-yl)-N-(2,3-dihydro-1,4-benzodioxin-6-ylmethyl)-N-(3-ethoxybenzyl)methanamine] | < 1
CCCCn1c(N2CCOCC2)nc(Cl)c1CN(CCC(C)C)Cc1ccc2c(c1)CCCN2 [Compound 22] | < 1
